In ChEMBL document CHEMBL1140330, “Carbonic anhydrase inhibitors. Design of fluorescent sulfonamides as probes of tumor-associated carbonic anhydrase IX that inhibit isozyme IX-mediated acidification of hypoxic tumors” (J Med Chem, 2005):

Legend:
in vitro [1] = conditions: human, whole blood; level measured in red blood cells
Description: Compound level in Red Blood Cells at 48 h, after Exposure of 10 mL of Blood to Compound solution by electronic spectroscopic method

in vitro [2] = conditions: human, whole blood; level measured in red blood cells; remark: listed apart in the source
Description: Compound level in Red Blood Cells at 60 min, after exposure of 10 mL of Blood to compound solution by electronic spectroscopic method

in vitro [3] = conditions: human, whole blood; level measured in red blood cells; remark: listed apart in the source
Description: Compound level in Red Blood Cells at 30 min, after exposure of 10 mL of Blood to compound solution by electronic spectroscopic method

Carbonic anhydrase 2 = Carbonic anhydrase 2 (Homo sapiens, UniProt P00918)
Description: Inhibition constant against human (cloned) isozyme (hCA II) by CO2 hydration method

in vitro [4] = conditions: human, whole blood; level measured in red blood cells; remark: listed apart in the source
Description: Compound level in Red Blood Cells at 48 h, after exposure of 10 mL of Blood to compound solution by HPLC method

in vitro [5] = conditions: human, whole blood; level measured in red blood cells; remark: listed apart in the source
Description: Compound level in Red Blood Cells at 60 min, after exposure of 10 mL of Blood to compound solution by HPLC method

in vitro [6] = conditions: human, whole blood; level measured in red blood cells; remark: listed apart in the source
Description: Compound level in Red Blood Cells at 30 min, after exposure of 10 mL of Blood to compound solution by HPLC method

Carbonic anhydrase 9 = Carbonic anhydrase 9 (Homo sapiens, UniProt Q16790)
Description: Inhibition constant against human cloned isozyme (hCA IX) by CO2 hydration method

Carbonic anhydrase 1 = Carbonic anhydrase 1 (Homo sapiens, UniProt P00915)
Chain of Carbonic anhydrase 1 (P00915 whole entry): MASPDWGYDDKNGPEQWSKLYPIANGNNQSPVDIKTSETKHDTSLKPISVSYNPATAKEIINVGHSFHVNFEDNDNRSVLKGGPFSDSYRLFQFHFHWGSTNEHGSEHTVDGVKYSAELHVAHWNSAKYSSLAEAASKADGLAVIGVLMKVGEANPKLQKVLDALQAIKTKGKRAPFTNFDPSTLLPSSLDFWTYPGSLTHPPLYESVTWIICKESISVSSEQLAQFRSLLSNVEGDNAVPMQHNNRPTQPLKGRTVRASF
Description: Inhibition constant against human (cloned) isozyme (hCA I) by the CO2 hydration method

Row | Compound | concentration at 48 h (in vitro [1]) [µM] | concentration at 1 h (in vitro [2]) [µM] | concentration at 0.5 h (in vitro [3]) [µM] | Ki (Carbonic anhydrase 2) [nM] | concentration at 48 h (in vitro [4]) [µM] | concentration at 1 h (in vitro [5]) [µM] | concentration at 0.5 h (in vitro [6]) [µM] | Ki (Carbonic anhydrase 9) [nM] | Ki (Carbonic anhydrase 1) [nM]
1 | Cc1cc(C)[n+](Cc2ccc(S(N)(=O)=O)cc2)cc1C.[O-][Cl+3]([O-])([O-])[O-] | 0.5 | 0.5 | 0.5 | 50 | 0.3 | 0.4 | 0.3 | 38 | 7000
2 | NS(=O)(=O)c1ccc(C/N=C(S)/N=C2/C=CC(=C3c4ccc(O)cc4Oc4cc(O)ccc43)C(C(=O)O)=C2)cc1 |  |  |  |  |  |  |  | 26 | 1450
3 | NS(=O)(=O)c1ccc(/N=C(S)/N=C2/C=CC(=C3c4ccc(O)cc4Oc4cc(O)ccc43)C(C(=O)O)=C2)c(F)c1 |  |  |  |  |  |  |  | 30 | 980
4 | NS(=O)(=O)c1ccc(CC/N=C(S)/N=C2/C=CC(=C3c4ccc(O)cc4Oc4cc(O)ccc43)C(C(=O)O)=C2)cc1 |  |  |  |  |  |  |  |  | 1300
5 | CC(=O)/N=c1/sc(S(N)(=O)=O)nn1C [METHAZOLAMIDE] | 169 | 168 | 169 |  | 167 | 168 | 170 |  | 
6 | NCCc1ccc(S(N)(=O)=O)cc1 | 168 | 165 | 138 |  | 167 | 162 | 132 |  | 

Second part, the compound after the results:

Row | concentration at 48 h (in vitro [1]) [µM] | concentration at 1 h (in vitro [2]) [µM] | concentration at 0.5 h (in vitro [3]) [µM] | Ki (Carbonic anhydrase 2) [nM] | concentration at 48 h (in vitro [4]) [µM] | concentration at 1 h (in vitro [5]) [µM] | concentration at 0.5 h (in vitro [6]) [µM] | Ki (Carbonic anhydrase 9) [nM] | Ki (Carbonic anhydrase 1) [nM] | Compound
7 |  |  |  | 40 |  |  |  | 31 | 1070 | NS(=O)(=O)c1ccc(/N=C(S)/N=C2/C=CC(=C3c4ccc(O)cc4Oc4cc(O)ccc43)C(C(=O)O)=C2)c(I)c1
8 |  |  |  | 52 |  |  |  | 32 | 950 | NS(=O)(=O)c1ccc(/N=C(S)/N=C2/C=CC(=C3c4ccc(O)cc4Oc4cc(O)ccc43)C(C(=O)O)=C2)c(Cl)c1
9 |  |  |  | 43 |  |  |  | 35 | 1100 | NS(=O)(=O)c1ccc(/N=C(S)/N=C2/C=CC(=C3c4ccc(O)cc4Oc4cc(O)ccc43)C(C(=O)O)=C2)c(Br)c1
